Measured values published in US20030118651A1, “Bio-compatible means for controlled drug delivery to tissue and method of use” (priority 2001, published 2003).

Type: physicochemical
Conditions: pH 7.4
Procedure: The ORC-active agent combinations of example 2 and 3 can be suspended in neutral buffers at pH 7.4 at 37° C. to simulate body conditions for the purpose of studying the release of the drug in the buffer (in vitro). The test samples released Marcaine in the buffer while degrading. The ORC matrix is expected to degrade completely in 3-5 days if needed, degradation can be accelerated (terminal samples) by adding sodium bicarbonate base to the buffer solution. More particularly, for example, water bath is pre-heated to 37° C. Test samples of the ORC-Marcaine are cut into small pieces and the samples (in the range of 0.05g-01 g) are weighed and placed in labeled vials. The desired amount of buffer (e.g., 100, 50, 25 or 10 times, by weight, of the test sample) is added. For terminal samples, sufficient sodium bicarbonate is added to make a 0.15 M solution. The vials are placed in the pre-heated water bath for the desired period of time (approximately 10 min-120 hours).

time to complete degradation: 3 to 5 days
Substance: oxidized regenerated cellulose [ORC matrix]
